Results: ChEMBL document CHEMBL1201862, “PubChem BioAssay data set” (2004)
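Briefly, cells in 96-well plates were exposed to five compound concentrations for 48 h, and endpoints were estimated by linear interpolation. GI50 is the concentration that inhibits growth by half.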 Calls of active or inactive are those of the source. No stated cut-off is given here; in the data, active = GI50 up to about 1.1 µM and inactive = higher.

Key:
Assay in all cases: growth of human tumour cells (NCI), 48 h
[1] = system: 786-0
[2] = system: A498
[3] = system: A549
[4] = system: ACHN
[5] = system: BT-549
[6] = system: CAKI-1
[7] = system: CCRF-CEM
[8] = system: COLO 205
[9] = system: DU-145
[10] = system: EKVX
[11] = system: HCC 2998
[12] = system: HCT-116
[13] = system: HCT-15
[14] = system: HL-60
[15] = system: HOP-62
[16] = system: HOP-92
[17] = system: HT-29
[18] = system: Hs-578T
[19] = system: IGROV-1
[20] = system: K562
[21] = system: KM12
[22] = system: LOX IMVI
[23] = system: M14
[24] = system: MCF7
[25] = system: MDA-MB-231
[26] = system: MDA-MB-435
[27] = system: MDA-N
[28] = system: MOLT-4
[29] = system: Malme-3M
[30] = system: NCI-H226
[31] = system: NCI-H23
[32] = system: NCI-H460
[33] = system: NCI-H522
[34] = system: NCI/ADR-RES
[35] = system: OVCAR-3
[36] = system: OVCAR-4
[37] = system: OVCAR-5
[38] = system: OVCAR-8
[39] = system: PC-3
[40] = system: RPMI-8226
[41] = system: RXF 393
[42] = system: SF-268
[43] = system: SF-295
[44] = system: SF-539
[45] = system: SK-MEL-28
[46] = system: SK-MEL-2
[47] = system: SK-MEL-5
[48] = system: SK-OV-3
[49] = system: SN12C
[50] = system: SNB-19
[51] = system: SNB-75
[52] = system: SR
[53] = system: SW-620
[54] = system: T47D
[55] = system: TK-10
[56] = system: U-251
[57] = system: UACC-257
[58] = system: UACC-62
[59] = system: UO-31

Measured: GI50

COC(=O)CNC(=O)CCC(C)[C@H]1CCC2C3C(C[C@H](OC(C)=O)[C@@]21C)[C@@]1(C)CCC2(C[C@H]1C[C@H]3OC(C)=O)OOC1(CCCCC1)OO2 (stereo partly specified)
2.7 µM: [13]
inactive: [1] 2.04 µM | [2] 17.2 µM | [3] 1.72 µM | [4] 1.89 µM | [5] 1.69 µM | [6] 2.02 µM | [7] 2.1 µM | [8] 1.91 µM | [9] 2.34 µM | [10] 2.18 µM | [11] 2 µM | [12] 2.73 µM | [14] 2.36 µM | [17] 2.69 µM | [18] 2.72 µM | [19] 1.4 µM | [20] 3.14 µM | [21] 2.01 µM | [22] 2.12 µM | [23] 3.91 µM | [24] 3.26 µM | [25] 1.64 µM | [26] 2.07 µM | [27] 1.74 µM | [28] 3.55 µM | [29] 3.37 µM | [30] 2.1 µM | [31] 1.91 µM | [32] 1.76 µM | [33] 1.48 µM | [34] 2.17 µM | [35] 2.04 µM | [36] 1.83 µM | [37] 2.6 µM | [38] 1.82 µM | [39] 2.49 µM | [40] 1.75 µM | [41] 1.99 µM | [42] 1.75 µM | [43] 6.08 µM | [44] 1.95 µM | [45] 9.29 µM | [46] 2.24 µM | [47] 2.63 µM | [48] 12.4 µM | [49] 1.59 µM | [50] 4.63 µM | [51] 2.23 µM | [52] 1.24 µM | [53] 2.24 µM | [54] 2.58 µM | [55] 11.2 µM | [56] 1.76 µM | [57] 6.31 µM | [58] 9.12 µM | [59] 1.84 µM
active: [15] 0.579 µM | [16] 1.08 µM

CC1OC(OC2C(O[C@@H]3C[C@@H]4CC[C@@H]5[C@H](CC[C@]6(C)C7C(C[C@@H]56)O[C@]5(CC[C@@H](C)CO5)[C@H]7C)[C@@]4(C)C[C@H]3O)OC(CO)C(O)C2O)C(O)C(O)C1O (stereo partly specified)
inactive: [1] 1.82 µM | [2] 2.3 µM | [3] 1.86 µM | [4] 1.75 µM | [5] 1.93 µM | [6] 2.06 µM | [7] 1.93 µM | [8] 1.85 µM | [9] 1.84 µM | [10] 1.92 µM | [11] 1.82 µM | [12] 1.81 µM | [14] 2.06 µM | [15] 2 µM | [16] 2.8 µM | [17] 1.62 µM | [18] 2.54 µM | [19] 1.73 µM | [20] 1.89 µM | [21] 2.32 µM | [22] 1.78 µM | [23] 1.79 µM | [24] 1.85 µM | [25] 1.78 µM | [26] 1.8 µM | [27] 2.47 µM | [28] 1.86 µM | [29] 1.82 µM | [30] 2.84 µM | [31] 1.82 µM | [32] 1.92 µM | [33] 1.89 µM | [34] 1.94 µM | [35] 1.8 µM | [36] 2.23 µM | [37] 1.57 µM | [38] 1.86 µM | [39] 1.76 µM | [40] 2.28 µM | [41] 2.15 µM | [42] 1.91 µM | [43] 1.83 µM | [44] 1.64 µM | [45] 1.85 µM | [46] 1.78 µM | [47] 2.09 µM | [48] 1.89 µM | [49] 1.71 µM | [50] 2.41 µM | [51] 2.24 µM | [52] 2.16 µM | [53] 1.93 µM | [54] 2.14 µM | [55] 1.76 µM | [56] 1.68 µM | [57] 1.86 µM | [58] 1.74 µM | [59] 1.78 µM
1.87 µM: [13]

Cc1c2ncccc2cc2oc3ccccc3c(=O)c12
inactive: [1] > 100 µM | [2] 81.5 µM | [3] 12.9 µM | [4] 21.9 µM | [5] 55.8 µM | [6] 17.7 µM | [7] 16 µM | [8] 31.2 µM | [9] 29.2 µM | [10] 11.1 µM | [11] 60.7 µM | [12] 31.3 µM | [14] 34 µM | [15] 30.9 µM | [16] 28.3 µM | [17] 35.6 µM | [18] > 100 µM | [19] 4.63 µM | [20] 24.9 µM | [21] 55.6 µM | [22] 11.1 µM | [24] 5.11 µM | [25] 92 µM | [26] 56.8 µM | [27] 63.4 µM | [28] 2.94 µM | [29] 68.4 µM | [30] 38.4 µM | [31] 47.9 µM | [32] 5.46 µM | [33] 31.5 µM | [34] 21.4 µM | [35] 33.9 µM | [36] 35.8 µM | [37] 16.1 µM | [38] 80.2 µM | [39] 75.7 µM | [40] > 100 µM | [41] 61.4 µM | [42] 41.7 µM | [43] 31.6 µM | [44] > 100 µM | [45] > 100 µM | [46] > 100 µM | [47] 18.2 µM | [48] > 100 µM | [49] 24 µM | [51] > 100 µM | [52] 41.2 µM | [53] 33.5 µM | [54] 18.1 µM | [55] 91.4 µM | [57] 58.5 µM | [58] 50 µM | [59] 7.06 µM
41.8 µM: [13]

CCOC(=O)C1=C(C)C2C=C(c3cccs3)CC(c3ccc(Cl)cc3)=C2OC1=O (stereo unspecified)
16.8 µM: [13]
inactive: [1] 20.6 µM | [2] 83.2 µM | [3] > 100 µM | [4] 32.7 µM | [5] 31.5 µM | [6] 57.8 µM | [7] 17.3 µM | [8] 40.9 µM | [9] 29.9 µM | [10] 31 µM | [11] 22.5 µM | [12] 7.43 µM | [14] 4.69 µM | [15] 86.1 µM | [16] > 100 µM | [17] 30 µM | [18] > 100 µM | [19] 26.3 µM | [20] 5.05 µM | [21] 15.2 µM | [22] 16.9 µM | [23] 58.3 µM | [24] 14.1 µM | [25] 92.3 µM | [26] 42.4 µM | [27] 37.9 µM | [28] 6.07 µM | [30] 21 µM | [31] 71.1 µM | [32] 64.4 µM | [33] 19.2 µM | [34] 30.5 µM | [35] 24.7 µM | [36] 19.7 µM | [37] > 100 µM | [38] 31.8 µM | [39] 14.1 µM | [40] 7.59 µM | [41] 84.5 µM | [42] 97.1 µM | [43] 60.4 µM | [45] 94.4 µM | [46] > 100 µM | [47] 27 µM | [48] > 100 µM | [49] 44.3 µM | [50] 45.2 µM | [51] 50.8 µM | [52] 15.5 µM | [53] 65 µM | [54] 3.97 µM | [55] 31.7 µM | [56] 33.3 µM | [57] 17.7 µM | [58] 45.8 µM | [59] 13.3 µM
